Reference: paper PMC6698794, “Catalytic Knockdown of miR-21 by Artificial Ribonuclease: Biological Performance in Tumor Model” (Frontiers in Pharmacology, 2019)

How the values were obtained:
[1] = Nuclease resistance assay in DMEM with 10% fetal bovine serum; assay type: in vitro ADME; settings: 0.1 µg/µl, DMEM with 10% FBS, 37°C; 12% PAAG/8M urea gel, Stains-All
Method: Oligonucleotides or conjugates (0.1 µg/µl) were incubated at 37°C in Dulbecco’s Modified Eagle Medium (DMEM) (Sigma, USA) with 10% fetal bovine serum (FBS; GE Healthcare, USA). Reactions were quenched in urea (8M) and immediately frozen in liquid nitrogen, prior to analysis of thawed samples in 12% PAAG/8M urea gels, using Tris-Borate-EDTA (TBE) as running buffer, Stains-All (MP Biomedicals, USA) and photographic gel documentation (VilberLourmat, France).

[2] = tested on: B16 cells; assay: In vitro invasiveness assay (xCELLigence, Matrigel-coated CIM-Plates); assay type: cell-based, mouse; settings: 1 µM with Lipofectamine; compared with Lipofectamine alone
Method: (§1) B16 cells were pre-seeded (2 × 10^5 per well of 24-well plates) in DMEM/10% FBS a day before transfection. Medium was replaced with serum-free DMEM, prior to incubation for 4 h with h-ODN, 2′-OMe, Inh (hsa-miR-21 5 p inhibitor, Ambion, USA), miR-21-miRNase, or luc-POC, each (0.1 or 1 µM) pre-complexed with Lipofectamine (Thermo Fisher Scientific, USA) in Opti-MEM medium (Thermo Fisher Scientific, USA) according to manufacturer’s instructions, then cells were cultivated in fresh culture standard medium for 24–72 h.
Real-time cell analysis (xCELLigence, ACEABiosciences, USA) used CIM-Plates held at 37°C under an atmosphere of 5% CO2. Top chamber wells were coated with Matrigel (20 µl per well, diluted 1:40 with cold serum-free DMEM) and allowed to polymerize (4 h at 37°C under 5% CO2) prior to cell seeding. Bottom chamber wells were filled with DMEM/10% FBS (160 µl each), prior to assembly of the chambers, when serum-free DMEM was added to the top wells (30 µl each) and equilibrated (1 h at 37°C under 5% CO2). At 4 h after transfection, B16 cells (4 × 10^4) were seeded into each top chamber well in serum-free DMEM and pre-incubated for 30 min at room temperature before monitoring (xCELLigence set to collect impedance data, reported as cell index at least once every 30 min).
(§2) Figure 2 Biological effect of the miR-21-specific miRNase. (A) Apoptotic profile of B16 melanoma cells after transfection with miR-21-miRNase and control luc-POC. Cytofluorimetric analysis of cells after staining with Annexin V-FITC/PI 48 h after transfection with miRNase or luc-POC (1 µM) in complex with Lipofectamine2000. Q1—population of living cells; Q2—Annexin V-FITC+/PI-, early apoptosis; Q3—Annexin V-FITC+/PI+, late apoptosis; Q4—Annexin V-FITC-/PI+, necrosis. (B) Average percentage of apoptotic (early and late apoptosis) and necrotic B16 cell population. Data represent mean ± s.e. of four independent experiments.(C, D) Invasion activity of B16 cells after incubation with Lipofectamine (LF) alone or treated with either hairpin antisense oligonucleotide (h-ODN), hairpin 2′-OMe oligonucleotide (2′-OMe), commercial miR-21 inhibitor (Inh), miR-21-miRNase, and control conjugate (luc-POC) in the concentration of 1 µM. Migration of cells was recorded in real time using the xCELLigence cell analysis system. Control—B16 cells without treatment. Data represent mean ± s.d. of four independent experiments.

[3] = tested on: RLS40 lymphosarcoma; assay: Hepatic index of mice implanted with treated RLS40 cells; assay type: in vivo; settings: cells treated with 1 µM; (liver weight/mouse weight) × 100%; 5.0% for healthy CBA mice; Mean ± SE
Method: (§3) RLS40 ascites were taken from CBA mice intraperitoneally injected with tumor cells (2 × 10^6 in 0.2 ml buffered saline) into their abdominal cavities. RLS40 cells, isolated from ascites fluid by filtration through LSM were divided into seven portions: 1) untreated cells; 2) the cells incubated with Lipofectamine; the cells transfected with 1 µM of 3) h-ODN, 4) 2′-OMe, 5) Inh, 6) miR-21-miRNase, or 7) luc-POC each. After 4 h of transfection, cell suspensions (0.1 ml, 2 × 10^6 cells) were intramuscularly inoculated into the right lower limb of CBA mice for solid tumor development. As soon as tumors began to be palpable, the tumor volumes were measured every 2–3 days using calipers. Tumor volumes were calculated as V = (π/6 × length × width × height). Hepatic index was estimated as (liver weight/mouse weight) × 100% and as 5.0% for healthy CBA mice. Tumor doubling time (DT) was estimated as DT = (t − t0) × ln 2/(ln V − ln V0), where (t − t0) indicates the length of time between two measurements of tumor size and V0 and V denote the tumor volume at two points of the measurement ([Ozono et al., 2004]).
Supplementary Table 2. Hepatic indexes of mice implanted with RLS40 treated with antisense
oligonucleotides, control luc-POC and miR-21-miRNase
Type of treatment Hepatic index, %* p-value (vs control)
* – Mean ± SE; s.i. – statistically insignificant
Hepatic index was estimated as (liver weight/mouse weight) × 100% and as 5.0% for healthy CBA
The MDR status of RLS40 may add to the burden on the liver, when this type of tumor
metastasizes into the liver (Sen’kova et al., 2012). Ex vivo treatment of RLS40 cells by
oligonucleotides and miRNase avoids the toxic effect of antisense oligonucleotides, their conjugates
and transfection reagents directly on the tumor-bearing animal. This may allow consideration of
whether the decrease of migration activity of tumor cells translated into reduced metastatic burden of
RLS40 on the liver. Treatment of the cells seeding the tumor may not reduce migration and […]

[4] = tested on: RLS40 lymphosarcoma; assay: Tumor transplantation assay: RLS40 cells treated ex vivo, then inoculated intramuscularly; assay type: in vivo, CBA mice; settings: cells treated with 1 µM before transplantation
Method: as §3
Figure 3 Antitumor effect of miR-21-specific miRNase. (A) Retardation of RLS40 growth in vivo after treatment of RLS40 cells with antisense oligonucleotides, control conjugate (luc-POC), or miR-21-miRNase. (B) Tumor volume on day 19 after RLS40 transplantation. Mice were injected with RLS40 cells either without any treatment (w/t) or treated with Lipofectamine (LF), commercial miR-21 inhibitor at concentration 0.1 µM (Inh 0.1, recommended) and 1 µM (Inh 1, in accordance to concentration of miRNase used in the study), control conjugate (luc-POC, 1 µM), hairpin 2′OMe oligonucleotide (2′-OMe, 1 µM), hairpin antisense oligonucleotide (h-ODN, 1 µM) or miR-21-specific miRNase (miR-21-miRNase, 1 µM). Data were statistically analyzed using two-way ANOVA with post hoc Tukey test. Data are presented as mean ± s.e. p-value indicates a statistically reliable difference. (C) Doubling time of RLS40 tumors after treatment with oligonucleotides and conjugates. TEXT PRINTED IN THE PICTURE: (C) untreated: DT, days: 2,45±0,49 | (C) LF: DT, days: 2,48±0,35 | (C) Inh 0.1: DT, days: 2,56±0,59 | (C) Inh 1: DT, days: 13,90±0,46 | (C) 2’-OMe: DT, days: 3,17±1,45 | (C) luc-POC: DT, days: 2,40±0,45 | (C) h-ODN: DT, days: 3,00±1,83 | (C) miR-21-miRNase: DT, days: 12,77±0,34

[5] = tested on: B16 melanoma cells; assay: Annexin V-FITC/PI apoptosis assay; assay type: cell-based, mouse; settings: 1 µM with Lipofectamine; 24, 48, 72 h after transfection; maximum extent; flow cytometry
Method: as §1
At 24, 48, and 72 h after transfection, cells were harvested, washed twice with PBS, resuspended in Binding Buffer to a density of 2–5 × 10^5/ml, and incubated with annexin V-FITC and propidium iodide (PI) (ab14085, Abcam, UK) in the dark at room temperature for 15 min, prior to flow cytometry analysis (Novocyte CEA Biosciences, USA).
as §2

Row | Substance | Survival (intact) in serum-containing medium [1] | Migration rate of transfected B16 cells (in words) [2] | Hepatic index [3] | Tumor doubling time against w/t (in words) [4] | Tumor growth (in words) [4] | Necrosis of melanoma B16 cells (Annexin V-FITC-/PI+) [5]
1 | ODN: linear 14-mer deoxyribooligonucleotide TCAGTCTGATAAGC (unmodified DNA) | rapidly degraded |  |  |  |  | 
2 | acetyl-[(LeuArg)2Gly]2-aminohexyl-CGATAAATAACGCGСAAGTCAGCGAAAGCTGACTTG [luc-POC, control peptide-oligonucleotide conjugate; same hairpin, complementary part replaced by luciferase gene fragment] |  | almost the same rate as cells incubated with Lipofectamine | 5.56±0.11% | did not show a statistically significant difference | did not differ | up to 6.5%
